Reference: patent US10501428B2, “Thymoquinone derivatives for treatment of cancer” (United Arab Emirates University, priority 2014, dated 2019)
pIC50: −log10 of the molar value. Read-outs that look alike come from different tables or passages of the source.

What was measured:
[1] = system: G-quadruplex DNA; assay: Melting temperature curves of G-quadruplex and TQ complexes by CD; type: binding, human; conditions: for Tm: equimolar G-quadruplex and TQ 3.93×10^−6 M, Tris-KCl buffer pH 7.4, CD at 293 nm; for Δ Tm: versus G-quadruplex DNA alone (70.0 ° C.)
Description: (§1) A 2 ml of the stock single stranded DNA; 5′-[…]-3′ (SEQ ID NO: 1) was gently heated up to 95° C., incubated for 10 minutes and then left to cool to room temperature. Resultant solution was kept in fridge at 4° C. overnight.
Melting temperature curves for G-quadruplex and their TQs adducts were constructed using CD spectral measurements.
A 1 ml telomeric G-quadruplex (3.93×10^−6 M) in Tris-KCl-buffer pH7.4, was heated in 1-5° C. increments in the range 25-95° C. using 5 minutes incubation time intervals. CD spectra were recorded in the range 200-400 nm using 50 nm/min, 1 nm band width and 3 accumulations at each point. CD spectra were baseline corrected against blank solution and CD intensities at 293 nm were plotted versus temperature.
Similarly G-quadruplex-TQ1-8 1 mL complex solutions that were 3.93×10^−6 M of G-quadruplex and 3.93×10−6 M of TQs were heated up to 95° C. and measured. The solutions were prepared by mixing equi-molar amounts of G-quadruplex (27.3 μL, 1.44×10^−4 M) with TQ compounds 1-8 (39.30 μL, 1×10^−4 M) in 1 mL KCl-buffer, pH 7.4. CD spectra were baseline corrected and CD intensities at 293 nm were plotted versus temperature.

[2] = system: G-quadruplex DNA; assay: Fluorescence titration of TQs with G-quadruplex DNA (modified Scatchard); type: binding, human; conditions: non-linear regression, modified Scatchard equation
Description: as §1
To 3 ml of 5×10^−5 M of each of compounds TQ1-8 in Tris-KCl-buffer, pH 7.4, successive portions of G-quadruplex DNA (1.44×10^−4 M) were added. After each addition, the TQ solution was stirred for 20 seconds, incubated for 3 min and its emission was scanned in the range 300-600 nm using excitation Amax of 280 nm and slit width of 10.00 nm. Titration stopped when no change in fluorescence intensity was observed.
Scatchard plots were used to determine the binding affinity of the thymoquinone derivative compounds to G-quadruplex based on fluorescence titration, keeping the compounds concentration constant and varying DNA amounts.
Dependant binding sites may have synergistic (the first bound ligand encourage the next binding one) or antagonistic (the first bound ligand suppress the next binding one) effects on each other, a phenomenon known as the neighbor exclusion effect. Non-linear regression based on a modified Scatchard equation gave the binding constants and number of binding sites shown in Table 3. Compound TQ8 has shown the highest binding constant (1.33×10^7 M^−1) and compound TQ5 has shown the lowest binding constant (7.76×10^4 M^−1)

[3] = system: Human lung cancer cells A549; assay: CellTiter-Glo cell viability assay, A549 lung cancer cells; type: cell-based; conditions: for cytotoxicity at 100 µM / pIC50: Homo sapiens; for cytotoxicity at 100 µM: A549, 100 μM, relative to control (DMSO), read-out: decrease in cell viability; for pIC50: A549, 24 hours
Description: (§2) Human lung cancer cells A549, human breast cancer cells MDA-MB-231 and colorectal cancer cells HT29, were used to test the antiproliferative activity of the synthesised compounds. Human lung cancer cells A549 were maintained in RPMI 1640 medium (Hyclone Laboratories, USA), human breast cancer cells MDA-MB-231 and colorectal cancer cells HT29 were maintained in DMEM medium (Hyclone Laboratories, USA). All media was supplemented with antibiotics (penicillin 50 U/ml; streptomycin 50 ug/ml) (Hyclone Laboratories, USA).
(§3) Cells were seeded at a density of 5,000 cells/well into 96-well plates. After 24 h, cells were treated for 24 and 48 h with different concentrations of compounds TQ1-5 and 8 (5-100 μM), in triplicate. Control cultures were treated with 0.1% DMSO. The effect of the compounds TQ1-8 on cell viability was determined using the CellTiter-Glo Luminescent Cell Viability assay (Promega Corporation, Madison, USA), based on quantification of ATP, which signals the presence of metabolically active cells. The luminescent signal was measured using the GLOMAX Luminometer system. Data were presented as proportional viability (%) by comparing the treated group with the untreated cells, the viability of which is assumed to be 100%.

[4] = system: colorectal cancer cells HT29; assay: CellTiter-Glo cell viability assay, HT29 colorectal cancer cells; type: cell-based; conditions: Homo sapiens, HT-29; for cytotoxicity at 100 µM: HT29, 100 μM, read-out: loss in cell viability
Description: as §2, §3

[5] = system: human breast cancer cells MDA-MB-231; assay: CellTiter-Glo cell viability assay, MDA-MB-231 breast cancer cells; type: cell-based; conditions: for cytotoxicity at 100 µM: MDA-MB-231, 100 μM, read-out: loss in cell viability
Description: as §2, §3

[6] = system: Human lung cancer cells A549; conditions: value has been reported, read-out: IC50 A549 (parent TQ, reported); cited from earlier work

Row | SMILES | Tm [1] | Δ Tm [1] | binding constant K [2] | cytotoxicity at 100 µM ([3]; 24 hours) | cytotoxicity at 100 µM ([3]; 48 hours exposure) | pIC50 [3] | melting point | potency compared to the parent TQ molecule ([3]; A549 IC50 comparison) | cytotoxicity at 100 µM ([4]; 24 hours exposure) | cytotoxicity at 100 µM ([4]; 48 hours exposure) | pIC50 ([4]; HT29, 24 hours) | cytotoxicity at 100 µM ([5]; 24 hours exposure) | cytotoxicity at 100 µM ([5]; 48 hours exposure) | pIC50 ([5]; MDA-MB-231, 24 hours) | pIC50 [6]
1 | COc1ccc(CNC2=C(C)C(=O)C=C(C(C)C)C2=O)cc1OC [TQ7, 5-isopropyl-2-methyl-3-(3,4-dimethoxylbenzylamino)-1,4-benzoquinone] | 77.0 °C | 7.7 °C | 1.17e+06 M⁻¹ | – | – | – | – | – | – | – | – | – | – | – | –
2 | CC1=C(NCc2ccc(F)cc2)C(=O)C(C(C)C)=CC1=O [TQ3, 5-Isopropyl-2-methyl-3-(4-fluorobenzylamino)-1,4-benzoquinone] | 76.0 °C | 6.0 °C | 330000 M⁻¹ | 29% | 64% | 4.08 | 80 to 82.5 °C | – | – | – | – | – | – | – | –
3 | CC1=C(N)C(=O)C(C(C)C)=CC1=O [TQ8, 3-amino-5-isopropyl-2-methyl-1,4-benzoquinone] | – | – | – | 99% | 100% | 4.46 | 68 to 72 °C | ≥ 200% | 97% | 99% | 4.25 | 83% | 98% | 4.35 | –
4 | CC1=C(NCCO)C(=O)C(C(C)C)=CC1=O [TQ6, 5-isopropyl-2-methyl-3-(2-hydroxyethylamino)-1,4-benzoquinone] | 80.0 °C | 10.0 °C | 1.49e+06 M⁻¹ | – | – | – | – | – | – | – | – | – | – | – | –
5 | CC1=CC(=O)C(C(C)C)=CC1=O [TQ, 2-isopropyl-5-methyl-1,1,4-benzoqinone] | – | – | – | – | – | – | – | – | – | – | – | – | – | – | 4.11
6 | CC1=C(NCCN2CCOCC2)C(=O)C(C(C)C)=CC1=O [TQ1, 5-Isopropyl-2-methyl-3-((2-morpholinoethyl)amino)-1,4-benzoquinone] | 79.0 °C | 9.0 °C | 113000 M⁻¹ | 15% | 33% | 4.13 | 92 to 95 °C | – | – | – | – | – | – | – | –
7 | CC1=C(NCc2ccccc2)C(=O)C(C(C)C)=CC1=O [TQ4, 5-Isopropyl-2-methyl-3-(benzylamino)-1,4-benzoquinone] | 76.0 °C | 6.0 °C | 95200 M⁻¹ | 17% | 58% | 4.05 | 83 to 84.5 °C | – | – | – | – | – | – | – | –
8 | CC1=C(NCc2cc(C(F)(F)F)cc(C(F)(F)F)c2)C(=O)C(C(C)C)=CC1=O [TQ5, 5-Isopropyl-2-methyl-3-(3,5-ditrifluoromethylbenzylamino)-1,4-benzoquinone] | 77.0 °C | 7.0 °C | 77600 M⁻¹ | 33% | 48% | 3.98 | 111 to 114 °C | – | – | – | – | – | – | – | –
9 | CC1=C(NCc2ccc(C(F)(F)F)cc2)C(=O)C(C(C)C)=CC1=O [TQ2, 5-Isopropyl-2-methyl-3-(4-trifluoromethylbenzylamino)-1,4-benzoquinone] | 76.0 °C | 6.0 °C | 567000 M⁻¹ | 32% | 57% | 4.07 | 110.5 to 112 °C | – | – | – | – | – | – | – | –
